Results from US8729088B2, “Toll-like receptor modulators and treatment of diseases” (The Regents of the University of California, priority 2009, dated 2014).

Assays:
TLR7 [1] = target: T1, TLR7 (Homo sapiens, UniProt Q9NYK1); assay: Cytokine induction in human PBMC, LUMINEX bead assay; type: cell-based; settings: 18 hours
T1 construct: endogenous in cells; host or cells: human PBMC from buffy coats (The San Diego Blood Bank)
T1 sequence (Q9NYK1 27-1049): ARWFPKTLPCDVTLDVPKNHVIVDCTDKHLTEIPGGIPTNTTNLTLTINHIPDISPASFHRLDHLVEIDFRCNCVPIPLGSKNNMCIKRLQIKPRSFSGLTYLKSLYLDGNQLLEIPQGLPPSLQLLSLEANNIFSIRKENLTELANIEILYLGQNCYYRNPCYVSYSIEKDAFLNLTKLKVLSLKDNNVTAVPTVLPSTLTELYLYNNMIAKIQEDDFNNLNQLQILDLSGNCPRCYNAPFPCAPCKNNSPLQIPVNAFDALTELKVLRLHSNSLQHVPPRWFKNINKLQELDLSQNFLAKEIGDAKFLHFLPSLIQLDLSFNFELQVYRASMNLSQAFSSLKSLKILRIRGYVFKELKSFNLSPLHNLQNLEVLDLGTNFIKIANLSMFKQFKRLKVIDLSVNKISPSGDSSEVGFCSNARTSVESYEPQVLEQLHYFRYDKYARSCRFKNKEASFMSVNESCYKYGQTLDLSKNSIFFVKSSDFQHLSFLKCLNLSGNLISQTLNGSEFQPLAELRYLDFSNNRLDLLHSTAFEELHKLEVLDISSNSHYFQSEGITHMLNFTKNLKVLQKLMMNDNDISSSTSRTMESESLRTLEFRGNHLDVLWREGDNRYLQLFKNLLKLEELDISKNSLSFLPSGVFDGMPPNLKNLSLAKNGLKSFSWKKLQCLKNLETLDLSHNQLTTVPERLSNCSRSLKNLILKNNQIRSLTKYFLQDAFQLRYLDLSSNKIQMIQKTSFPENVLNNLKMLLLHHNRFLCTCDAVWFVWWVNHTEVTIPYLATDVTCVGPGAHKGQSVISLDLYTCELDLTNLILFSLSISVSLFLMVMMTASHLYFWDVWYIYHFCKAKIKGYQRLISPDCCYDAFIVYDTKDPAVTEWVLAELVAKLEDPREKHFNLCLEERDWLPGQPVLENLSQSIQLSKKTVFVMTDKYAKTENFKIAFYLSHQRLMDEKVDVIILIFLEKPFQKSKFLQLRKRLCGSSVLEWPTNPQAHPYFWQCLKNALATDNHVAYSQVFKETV
Procedure: Human blood peripheral mononuclear cells (PBMC) were isolated from human buffy coats, purchased from The San Diego Blood Bank (San Diego, Calif.), as described in Hayashi, T et al., “Enhancement of innate immunity against Mycobacterium avium infection by immunostimulatory DNA is mediated by indoleamine 2,3-dioxygenase”, Infect Immun 69:6156-64, (2001). PBMC (1×10^6/mL) were incubated with various concentrations of TLR7 conjugates for 18 hours at 37° C., 5% CO2 and culture supernatants were collected. The levels of cytokines (IL-6, TNF-α, or IFNα1) in the supernatants were determined by LUMINEX bead assays (Invitrogen, Carlsbad, Calif.), and the results presented in FIG. 3A-B. Data are mean±SEM of triplicates and are representative of three independent experiments. The minimum detection levels of IL-6, TNF-α, and IFNα1 were 6 pg/mL, 10 pg/mL and 15 pg/mL, respectively.
To further investigate the immunological activities in human cells, human PBMC from three donors were treated with TLR7 conjugates and the levels of IL-6 and IFNa1 were determined by LUMINEX assay (FIG. 3A-B).

TLR7 [2] = assay: Cytokine induction in BMDM from wild type and TLR7 deficient mice; type: cell-based, mouse; settings: BMDM from TLR7 deficient mice
Procedure: In vitro measurements of cytokine induction were performed using the mouse leukemic monocyte macrophage cell line, RAW264.7. […] BMDM were prepared from C57BL/6 and TLR7 deficient mice as described in Wu, C. C et al., (2007) “Immunotherapeutic activity of a conjugate of a Toll-like receptor 7 ligand”, Proc Natl Acad Sci USA 104, 3990-5.
In general, RAW264.7 cells or BMDM were incubated with various concentrations of conjugates for 18 hours at 37° C., 5% CO2 and culture supernatants were collected. The levels of cytokines (IL-6, IL-12 or TNF-α in the supernatants were determined by ELISA (BD Biosciences Pharmingen, La Jolla, Calif.) (Cho, H. J et al., “Immunostimulatory DNA-based vaccines induce cytotoxic lymphocyte activity by a T-helper cell-independent mechanism” [see comments], Nat Biotechnol 18, 509-14 (2000)), and the results presented in FIG. 2A-D. Data are mean±SEM of triplicates and are representative of three independent experiments. Minimum detection levels of these cytokines were 15 pg/mL.

SMILES | order of TLR7 conjugate potency (TLR7 [1]) | IL-12 and IL-6 induction (TLR7 [2])
CCCCCCCC/C=C\CCCCCCCC(=O)OCC(COP(=O)(O)OCCNC(=O)CCc1cn(CCOCCOCCOCCOCCOCCOCCOCCOCCOCCOCCNC(=O)c2ccc(Cn3c(O)nc4c(N)nc(OCCOC)nc43)cc2)nn1)OC(=O)CCCCCCC/C=C\CCCCCCCC (stereo not drawn) [Compound 9, 2-(3-(1-(1-(4-((6-amino-8-hydroxy-2-(2-methoxyethoxy)-9H-purin-9-yl)methyl)phenyl)-1-oxo-5,8,11,14,17,20,23,26,29,32-decaoxa-2-azatetratriacontan-34-yl)-1H-1,2,3-triazole-4-yl)propanamido)ethyl 2,3-bis(oleoyloxy)propyl phosphate] | (4b)>(6)>(9)>/=SM>(8) | little or no IL-12 and IL-6
COCCOc1nc(N)c2nc(O)n(Cc3ccc(C(=O)NCCOCCOCCOCCOCCOCCOCCOCCOCCOCCOCCn4cc(CCC(=O)O)nn4)cc3)c2n1 [Compound 8, 3-(1-(1-(4-((6-amino-8-hydroxy-2-(2-methoxyethoxy)-9H-purin-9-yl)methyl)phenyl)-1-oxo-5,8,11,14,17,20,23,26,29,32-decaoxa-2-azatetratriacontan-34-yl)-1H-1,2,3-triazol-4-yl)propanoic acid] | (4b)>(6)>(9)>/=SM>(8) | little or no IL-12 and IL-6
CCCCCCCC/C=C\CCCCCCCC(=O)OCC(COP(=O)(O)OCCNC(=O)c1ccc(Cn2c(=O)[nH]c3c(N)nc(OCCOC)nc32)cc1)OC(=O)CCCCCCC/C=C\CCCCCCCC (stereo not drawn) [Compound 6, 2-(4-((6-amino-2-(2-methoxyethoxy)-8-oxo-7H-purin-9(8H)-yl)methyl)benzamido)ethyl 2,3-bis(oleoyloxy)propyl phosphate] | (4b)>(6)>(9)>/=SM>(8) | little or no IL-12 and IL-6
